Assay results as given in paper PMC6549035, “CUMYL-4CN-BINACA Is an Efficacious and Potent Pro-Convulsant Synthetic Cannabinoid Receptor Agonist” (Frontiers in Pharmacology, 2019).
pKi: −log10 of the molar value.

What was measured:
[1] = molecular target: T1, human CB2 receptor (hCB2) (Homo sapiens, UniProt P34972); experiment: [3H]-CP […] competition radioligand binding on HEK293 membranes
T1 construct: gene CNR2; 3-HA tagged CB2 receptor

[2] = molecular target: T2, human CB1 receptor (hCB1) (Homo sapiens, UniProt P21554); experiment: as above
T2 construct: gene CNR1
T2 sequence (P21554 whole entry): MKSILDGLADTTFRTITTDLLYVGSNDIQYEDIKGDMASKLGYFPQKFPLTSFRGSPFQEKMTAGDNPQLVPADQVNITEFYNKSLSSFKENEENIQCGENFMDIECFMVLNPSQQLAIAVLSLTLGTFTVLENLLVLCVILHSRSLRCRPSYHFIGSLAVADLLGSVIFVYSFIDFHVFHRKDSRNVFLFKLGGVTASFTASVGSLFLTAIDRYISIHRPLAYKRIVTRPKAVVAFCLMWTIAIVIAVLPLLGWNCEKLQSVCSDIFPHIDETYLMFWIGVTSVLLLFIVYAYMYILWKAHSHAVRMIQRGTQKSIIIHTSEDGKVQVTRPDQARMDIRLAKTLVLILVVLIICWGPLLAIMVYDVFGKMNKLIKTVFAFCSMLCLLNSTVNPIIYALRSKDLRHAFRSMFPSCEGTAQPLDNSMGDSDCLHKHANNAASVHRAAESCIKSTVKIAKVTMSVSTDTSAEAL

T1 sequence (P34972 whole entry): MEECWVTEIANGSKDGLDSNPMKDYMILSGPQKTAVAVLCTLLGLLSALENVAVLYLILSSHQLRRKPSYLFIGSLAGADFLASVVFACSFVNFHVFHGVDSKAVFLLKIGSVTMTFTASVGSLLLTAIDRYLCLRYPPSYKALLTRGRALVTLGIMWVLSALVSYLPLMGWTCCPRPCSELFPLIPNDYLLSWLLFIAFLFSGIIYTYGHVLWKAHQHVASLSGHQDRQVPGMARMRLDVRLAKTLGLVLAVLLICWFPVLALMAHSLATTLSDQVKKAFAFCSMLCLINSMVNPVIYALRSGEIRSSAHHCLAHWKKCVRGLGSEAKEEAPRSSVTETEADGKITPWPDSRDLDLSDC

CC(C)(NC(=O)c1nn(CCCCC#N)c2ccccc12)c1ccccc1 [compound 1, 1-(4-cyanobutyl)-N-(2-phenylpropan-2-yl)indazole-3-carboxamide]
pKi [1]: 7.83
pKi [2]: 8.59
